Source: patent US10336739B2, “4-hydroxy-3-(heteroaryl)pyridine-2-one APJ agonists” (BRISTOL-MYERS SQUIBB COMPANY, priority 2015, dated 2019)

Molecular target: human APJ receptor (Homo sapiens (Human), UniProt P35414)
Experiment: Intracellular cAMP accumulation assay (APJ hcAMP, HTRF)
Assay type: cell-based
Details: HEK293 cells stably expressing human APJ receptor; inhibition of forskolin-mediated cAMP production; read-out: hAPJ cAMP EC50 (nM) Potency range
Outline: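 cAMP inhibition was quantified by HTRF against a cAMP standard curve, with EC50 fitted to a variable-slope sigmoidal curve. Compounds acted on 5,000 APJ-stable HEK293 cells for 30 minutes at room temperature alongside 2 μM forskolin and […] IBMX. Detection reagents were incubated 60 min.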

human APJ receptor, sequence (P35414 whole entry): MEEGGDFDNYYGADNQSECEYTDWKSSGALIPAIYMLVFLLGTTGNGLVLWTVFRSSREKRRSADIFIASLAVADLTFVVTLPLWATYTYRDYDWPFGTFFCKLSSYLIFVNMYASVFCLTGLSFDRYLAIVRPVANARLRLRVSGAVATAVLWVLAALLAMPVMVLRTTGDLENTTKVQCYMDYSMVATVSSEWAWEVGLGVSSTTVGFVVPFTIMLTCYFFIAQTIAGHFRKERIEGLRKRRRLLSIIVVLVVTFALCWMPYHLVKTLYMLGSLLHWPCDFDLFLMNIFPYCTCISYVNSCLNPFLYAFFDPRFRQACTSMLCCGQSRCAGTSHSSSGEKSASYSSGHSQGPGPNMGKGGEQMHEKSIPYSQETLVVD

| SMILES | EC50 [nM] |
| --- | --- |
| CCCCc1nc(O)c(-c2nnc(CC(=O)NCc3ccc(S(N)(=O)=O)cc3)o2)c(O)c1-c1c(OC)cccc1OC [Example 273, 2-{5-[6-butyl-5-(2,6-dimethoxyphenyl)-2,4-dihydroxy-pyridin-3-yl]-1,3,4-oxadiazol-2-yl}-N-[(4-sulfamoylphenyl)methyl]acetamide] | 10 to 100 |

Same assay, conditions: HEK293 cells stably expressing human APJ receptor; inhibition of forskolin-mediated cAMP production; read-out: hAPJ cAMP EC50 Potency range

| SMILES | EC50 [nM] |
| --- | --- |
| CCCCc1nc(O)c(-c2nnc(Cc3cccc(OC)c3)o2)c(O)c1-c1c(OC)cccc1OC [Example 7, 6-butyl-5-(2,6-dimethoxyphenyl)-3-{5-[(3-methoxyphenyl)methyl]-1,3,4-oxadiazol-2-yl}pyridine-2,4-diol] | 0.01 to 10 |
| CCCCc1nc(O)c(-c2nnc(CCc3nc4ccccc4o3)o2)c(O)c1-c1c(OC)cccc1OC [Example 47, 3-{5-[2-(1,3-benzoxazol-2-yl)ethyl]-1,3,4-oxadiazol-2-yl}-6-butyl-5-(2,6-dimethoxyphenyl) pyridine-2,4-diol] | 0.01 to 10 |
| CCOCc1nc(O)c(-c2nnc(Cn3ccc(C(F)(F)F)n3)o2)c(O)c1-c1c(OC)cccc1OC [Example 129, 5-(2,6-dimethoxyphenyl)-6-(ethoxymethyl)-3-(5-{[3-(trifluoromethyl)-1H-pyrazol-1-yl]methyl}-1,3,4-oxadiazol-2-yl)pyridine-2,4-diol] | 10 to 100 |
| CCCCCNC(=O)Cc1nnc(-c2c(O)nc(CCCC)c(-c3c(OC)cccc3OC)c2O)o1 [Example 198, 2-{5-[6-butyl-5-(2,6-dimethoxyphenyl)-2,4-dihydroxypyridin-3-yl]-1,3,4-oxadiazol-2-yl}-N-pentylacetamide] | 10 to 100 |
| CCCCc1nc(O)c(-c2nnc(Cc3ccc(Cl)cc3F)o2)c(O)c1-c1c(OC)cccc1OC [Example 103, 6-butyl-3-{5-[(4-chloro-2-fluorophenyl)methyl]-1,3,4-oxadiazol-2-yl}-5-(2,6-dimethoxyphenyl) pyridine-2,4-diol] | 0.01 to 10 |
| CCCCc1nc(O)c(-c2nnc(Cc3n[nH]c(=O)c4ccccc34)o2)c(O)c1-c1c(OC)cccc1OC [Example 44, 4-({5-[6-butyl-5-(2,6-dimethoxyphenyl)-2,4-dihydroxypyridin-3-yl]-1,3,4-oxadiazol-2-yl}methyl)-1,2-dihydrophthalazin-1-one] | 10 to 100 |
| C=CCCc1nc(O)c(-c2nnc(Cc3ccccc3)o2)c(O)c1-c1c(OC)cccc1OC [Example 18, 3-(5-benzyl-1,3,4-oxadiazol-2-yl)-6-(but-3-en-1-yl)-5-(2,6-dimethoxyphenyl) pyridine-2,4-diol] | 10 to 100 |
| CCOCc1nc(O)c(-c2nnc(Cc3ccc(F)nc3)o2)c(O)c1-c1c(OC)cccc1OC [Example 131, 5-(2,6-dimethoxyphenyl)-6-(ethoxymethyl)-3-{5-[(6-fluoropyridin-3-yl)methyl]-1,3,4-oxadiazol-2-yl}pyridine-2,4-diol] | 0.01 to 10 |
| CCCCc1nc(O)c(-c2nnc(Cc3ccc(F)c(F)c3)o2)c(O)c1-c1cccc(C(=O)NC(C)C)c1 [Example 147, 3-(2-butyl-5-{5-[(3,4-difluorophenyl)methyl]-1,3,4-oxadiazol-2-yl}-4,6-dihydroxypyridin-3-yl)-N-(propan-2-yl)benzamide] | 10 to 100 |
| CCCCc1nc(O)c(-c2nnc(Cn3ccccc3=O)o2)c(O)c1-c1c(OC)cccc1OC [Example 114, 1-({5-[6-butyl-5-(2,6-dimethoxyphenyl)-2,4-dihydroxypyridin-3-yl]-1,3,4-oxadiazol-2-yl}methyl)-1,2-dihydropyridin-2-one] | 0.01 to 10 |
| CCCCc1nc(O)c(-c2nnc(CNC(=O)c3ccccc3)o2)c(O)c1-c1c(OC)cccc1OC [Example 171, N-({5-[6-butyl-5-(2,6-dimethoxyphenyl)-2,4-dihydroxypyridin-3-yl]-1,3,4-oxadiazol-2-yl}methyl) benzamide] | 0.01 to 10 |
| CCCCc1nc(O)c(-c2nnc(CNC(=O)OC(C)(C)C)o2)c(O)c1-c1c(OC)cccc1OC [Example 120, tert-butyl N-({5-[6-butyl-5-(2,6-dimethoxyphenyl)-2,4-dihydroxypyridin-3-yl]-1,3,4-oxadiazol-2-yl}methyl) carbamate] | 10 to 100 |
